Measured values reported in patent publication US9593149B2, “Amylin and calcitonin receptor agonist” (Novo Nordisk A/S, priority 2014, dated 2017).
≈ marks a conversion by molar mass, not a printed value. Numbered stars: 1 amine (or outer) side, 2 acyl side, 3 side chain; on linkers, the order of the positions; unused ones are H or OH. Peptide text beside a SMILES is read from it. * marks the point of attachment. C20 diacid = O=C(O)CCCCCCCCCCCCCCCCCCC(=O)*; C18 diacid = O=C(O)CCCCCCCCCCCCCCCCC(=O)*; γGlu = O=C(O)[C@H](CCC(=O)[*:2])N[*:1]; AEEA = NCCOCCOCC(=O)O

Assay: Assay (IV) determination of solubility
Assay type: physicochemical
Experimental: Assay (IV)—Determination of Solubility
The mimylin peptide was dissolved in water at ˜500 nmol/ml and mixed 1:1 with a series of buffers (100 mM glycylglycine pH 3.0, 100 mM glycylglycine pH 4.0, 100 mM glycylglycine pH 5.0, 100 mM bistrispropane pH 6.0, 100 mM bistrispropane pH 6.5, 100 mM bistrispropane pH 7.0, 100 mM bistrispropane pH 7.5, 100 mM bistrispropane pH 8.0).

SMILES	Solubility (pH 3.0)	solubility at 18 h (pH 4.0)	Solubility (pH 5.0)	Solubility (pH 6.0)	Solubility (pH 6.5)	Solubility (pH 7.0)	Solubility (pH 7.5)	Solubility (pH 8.0)	Solubility (pH 4.0)	solubility at 18 h (pH 5.0)
CC(C)C[C@H](NC(=O)CNC(=O)[C@H](CO)NC(=O)[C@H](C)NC(=O)CC[C@H](NC(=O)CCCCCCCCCCCCCCCCCCC(=O)O)C(=O)O)C(=O)N[C@@H](CO)C(=O)N[C@H](C(=O)N[C@@H](C)C(=O)N[C@H](C(=O)N[C@@H](CC(C)C)C(=O)NCC(=O)N[C@@H](CCCNC(=N)N)C(=O)N[C@@H](CC(C)C)C(=O)N[C@@H](CO)C(=O)N[C@@H](CCC(N)=O)C(=O)N[C@@H](CCC(=O)O)C(=O)N[C@@H](CC(C)C)C(=O)N[C@@H](Cc1cnc[nH]1)C(=O)N[C@@H](CCC(=O)O)C(=O)N[C@@H](CC(C)C)C(=O)N[C@@H](CCC(N)=O)C(=O)N[C@H](C(=O)N[C@@H](Cc1ccc(O)cc1)C(=O)N1CCC[C@H]1C(=O)N1CCC[C@H]1C(=O)N[C@H](C(=O)N[C@@H](CCC(=O)O)C(=O)N[C@H](C(=O)NCC(=O)N[C@@H](CO)C(=O)N[C@@H](CCC(N)=O)C(=O)N[C@H](C(=O)N[C@@H](Cc1ccc(O)cc1)C(N)=O)[C@@H](C)O)[C@@H](C)O)[C@@H](C)O)[C@@H](C)O)C(C)C)[C@@H](C)O [compound 125, [N-terminal(C20 diacid-gGlu), des1, 4G, 9V, 15Q, 21Q, 23Y, 25P, 30S, 31Q, 32T, 33Y]mimylin] ({C20 diacid-γGlu}-ASGLSTAVLGRLSQELHELQTYPPTETGSQTY-NH2)	≧200 μM	28 µM (≈ 109 µg/mL)	≧200 μM	≧200 μM	≧200 μM	≧200 μM	≧200 μM	≧200 μM	–	–
CC(C)C[C@H](NC(=O)[C@H](CCC(=O)O)NC(=O)[C@H](Cc1cnc[nH]1)NC(=O)[C@H](CC(C)C)NC(=O)[C@H](CCC(=O)O)NC(=O)[C@H](C)NC(=O)[C@H](CO)NC(=O)[C@H](CC(C)C)NC(=O)[C@H](CCCNC(=N)N)NC(=O)CNC(=O)[C@H](CC(C)C)NC(=O)[C@@H](NC(=O)[C@H](C)NC(=O)[C@@H](NC(=O)[C@H](CO)NC(=O)[C@H](CC(C)C)NC(=O)[C@H](CCC(=O)O)NC(=O)[C@H](CO)NC(=O)[C@H](C)NC(=O)CC[C@H](NC(=O)CCCCCCCCCCCCCCCCC(=O)O)C(=O)O)[C@@H](C)O)C(C)C)C(=O)N[C@@H](C)C(=O)N[C@H](C(=O)N[C@@H](CC(C)C)C(=O)N1CCC[C@H]1C(=O)N[C@@H](CCCNC(=N)N)C(=O)N[C@H](C(=O)N[C@@H](CCC(=O)O)C(=O)N[C@H](C(=O)NCC(=O)N[C@@H](CO)C(=O)NCC(=O)N[C@@H](CO)C(=O)N1CCC[C@H]1C(N)=O)[C@@H](C)O)[C@@H](C)O)[C@@H](C)O [compound 76, [N-terminal(C18 diacid-gGlu), des1, 9V, 30S, 31G]mimylin] ({C18 diacid-γGlu}-ASELSTAVLGRLSAELHELATLPRTETGSGSP-NH2)	≧200 μM	–	≧200 μM	≧200 μM	≧200 μM	≧200 μM	≧200 μM	≧200 μM	≧200 μM	–
CC(C)C[C@H](NC(=O)[C@H](C)NC(=O)[C@H](C)NC(=O)[C@@H](NC(=O)[C@H](CO)NC(=O)[C@H](CC(C)C)NC(=O)[C@H](CCC(=O)O)NC(=O)[C@H](CO)NC(=O)[C@H](C)NC(=O)CC[C@H](NC(=O)CCCCCCCCCCCCCCCCCCC(=O)O)C(=O)O)[C@@H](C)O)C(=O)NCC(=O)N[C@@H](CCCNC(=N)N)C(=O)N[C@@H](CC(C)C)C(=O)N[C@@H](CO)C(=O)N[C@@H](C)C(=O)N[C@@H](CCC(=O)O)C(=O)N[C@@H](CC(C)C)C(=O)N[C@@H](Cc1cnc[nH]1)C(=O)N[C@@H](CCC(=O)O)C(=O)N[C@@H](CC(C)C)C(=O)N[C@@H](C)C(=O)N[C@H](C(=O)N[C@@H](Cc1ccc(O)cc1)C(=O)N1CCC[C@H]1C(=O)N[C@@H](CCCNC(=N)N)C(=O)N[C@H](C(=O)N[C@@H](CCC(=O)O)C(=O)N[C@H](C(=O)NCC(=O)N[C@@H](CO)C(=O)NCC(=O)N[C@@H](CO)C(=O)N[C@@H](Cc1ccc(O)cc1)C(=O)O)[C@@H](C)O)[C@@H](C)O)[C@@H](C)O [compound 88, [N-terminal(C20 diacid-gGlu), des1, 23Y, 30S, 31G, 33Y, C-terminal(−)]mimylin] ({C20 diacid-γGlu}-ASELSTAALGRLSAELHELATYPRTETGSGSY-OH)	≧200 μM	1 µM (≈ 3.79 µg/mL)	–	≧200 μM	≧200 μM	≧200 μM	≧200 μM	≧200 μM	–	6 µM (≈ 22.8 µg/mL)
CC(C)C[C@H](NC(=O)[C@H](C)NC(=O)[C@H](C)NC(=O)[C@@H](NC(=O)[C@H](CO)NC(=O)[C@H](CC(C)C)NC(=O)[C@H](CCC(=O)O)NC(=O)[C@H](CO)NC(=O)[C@H](C)NC(=O)CC[C@H](NC(=O)CCCCCCCCCCCCCCCCCCC(=O)O)C(=O)O)[C@@H](C)O)C(=O)NCC(=O)N[C@@H](CCCNC(=N)N)C(=O)N[C@@H](CC(C)C)C(=O)N[C@@H](CO)C(=O)N[C@@H](C)C(=O)N[C@@H](CCC(=O)O)C(=O)N[C@@H](CC(C)C)C(=O)N[C@@H](Cc1cnc[nH]1)C(=O)N[C@@H](CCC(=O)O)C(=O)N[C@@H](CC(C)C)C(=O)N[C@@H](CO)C(=O)N[C@H](C(=O)N[C@@H](Cc1ccc(O)cc1)C(=O)N1CCC[C@H]1C(=O)N[C@@H](CCCNC(=N)N)C(=O)N[C@H](C(=O)N[C@@H](CCC(=O)O)C(=O)N[C@H](C(=O)NCC(=O)N[C@@H](CO)C(=O)NCC(=O)N[C@@H](CO)C(=O)N[C@@H](Cc1ccc(O)cc1)C(N)=O)[C@@H](C)O)[C@@H](C)O)[C@@H](C)O [compound 97, [N-terminal(C20 diacid-gGlu), des1, 21S, 23Y, 30S, 31G, 33Y]mimylin] ({C20 diacid-γGlu}-ASELSTAALGRLSAELHELSTYPRTETGSGSY-NH2)	≧200 μM	–	–	≧200 μM	≧200 μM	≧200 μM	≧200 μM	≧200 μM	≧200 μM	40 µM (≈ 152 µg/mL)
CC(C)C[C@H](NC(=O)[C@H](C)NC(=O)[C@H](C)NC(=O)[C@@H](NC(=O)[C@H](CO)NC(=O)[C@H](CC(C)C)NC(=O)[C@H](CCC(=O)O)NC(=O)[C@H](CO)NC(=O)[C@H](C)NC(=O)COCCOCCNC(=O)COCCOCCNC(=O)COCCOCCNC(=O)COCCOCCNC(=O)COCCOCCNC(=O)CC[C@H](NC(=O)CCCCCCCCCCCCCCCCCCC(=O)O)C(=O)O)[C@@H](C)O)C(=O)NCC(=O)N[C@@H](CCCNC(=N)N)C(=O)N[C@@H](CC(C)C)C(=O)N[C@@H](CO)C(=O)N[C@@H](C)C(=O)N[C@@H](CCC(=O)O)C(=O)N[C@@H](CC(C)C)C(=O)N[C@@H](Cc1cnc[nH]1)C(=O)N[C@@H](CCC(=O)O)C(=O)N[C@@H](CC(C)C)C(=O)N[C@@H](C)C(=O)N[C@H](C(=O)N[C@@H](CC(C)C)C(=O)N1CCC[C@H]1C(=O)N[C@@H](CCCNC(=N)N)C(=O)N[C@H](C(=O)N[C@@H](CCC(=O)O)C(=O)N[C@H](C(=O)NCC(=O)N[C@@H](CO)C(=O)NCC(=O)N[C@@H](CO)C(=O)N1CCC[C@H]1C(N)=O)[C@@H](C)O)[C@@H](C)O)[C@@H](C)O [compound 45, [N-terminal(C20 diacid-gGlu-5xOEG), des1, 30S, 31G]mimylin] ({C20 diacid-γGlu-AEEA-AEEA-AEEA-AEEA-AEEA}-ASELSTAALGRLSAELHELATLPRTETGSGSP-NH2)	≧200 μM	–	≧200 μM	≧200 μM	≧200 μM	≧200 μM	≧200 μM	≧200 μM	≧200 μM	–
CC(C)C[C@H](NC(=O)CNC(=O)[C@H](CO)NC(=O)[C@H](C)NC(=O)CC[C@H](NC(=O)CCCCCCCCCCCCCCCCCCC(=O)O)C(=O)O)C(=O)N[C@@H](CO)C(=O)N[C@H](C(=O)N[C@@H](C)C(=O)N[C@H](C(=O)N[C@@H](CC(C)C)C(=O)NCC(=O)N[C@@H](CCCNC(=N)N)C(=O)N[C@@H](CC(C)C)C(=O)N[C@@H](CO)C(=O)N[C@@H](C)C(=O)N[C@@H](CCC(=O)O)C(=O)N[C@@H](CC(C)C)C(=O)N[C@@H](Cc1cnc[nH]1)C(=O)N[C@@H](CCC(=O)O)C(=O)N[C@@H](CC(C)C)C(=O)N[C@@H](C)C(=O)N[C@H](C(=O)N[C@@H](Cc1ccc(O)cc1)C(=O)N1CCC[C@H]1C(=O)N[C@@H](CCCNC(=N)N)C(=O)N[C@H](C(=O)N[C@@H](CCC(=O)O)C(=O)N[C@H](C(=O)NCC(=O)N[C@@H](CO)C(=O)NCC(=O)N[C@H](C(=O)N1CCC[C@H]1C(N)=O)[C@@H](C)O)[C@@H](C)O)[C@@H](C)O)[C@@H](C)O)C(C)C)[C@@H](C)O [compound 98, [N-terminal(C20 diacid-gGlu), des1, 4G, 9V, 23Y, 30S, 31G, 32T]mimylin] ({C20 diacid-γGlu}-ASGLSTAVLGRLSAELHELATYPRTETGSGTP-NH2)	≧200 μM	–	≧200 μM	≧200 μM	≧200 μM	≧200 μM	≧200 μM	≧200 μM	≧200 μM	–
